We go through three compounds from patent US20220259656A1, “BLOOD BIOMARKER AND GENETIC MARKERS ASSOCIATED WITH RESPONSE TO CRTH2 RECEPTOR ANTAGONISTS” (Merck Sharp & Dohme Corp., priority 2019, published 2022).

Experiment [1] concerns participants with persistent asthma uncontrolled on montelukast, positive for C allele of rs12748961 SNP. Put plainly: Randomized, placebo-controlled, double-blind clinical study of Compound A added to montelukast; change from baseline in FEV1. Format: in vivo, human. As to conditions: for Average Change From Baseline FEV1 (L), Mean: Cmpd A 150 mg + ML. The protocol: The inventors conducted a world-wide, randomized, placebo-controlled, double-blind, parallel group study of the CRTH2 receptor antagonist, {(7R)-4-fluoro-7-[5-(4-fluorobenzyl)-1H-[1,2,3]triazol-1-yl]-6,7,8,9-tetrahydropyrido[1,2-a]indol-10-yl}-acetic acid (hereinafter “Compound A”) in participants with persistent asthma who remained uncontrolled while being maintained on montelukast (ML). At Prescreening Visit 1, participants were tested for the presence of the rs 12748961 SNP to determine eligibility. The primary efficacy analysis compared the effect of Compound A to placebo, when each was added to montelukast, on the average change from baseline in FEV1 using a constrained longitudinal data analysis model.
Eligible participants were male and female participants between the ages of 18 and 65 with persistent asthma for at least 1 year and a documented SNP+test result. Participants also must have had acceptable lung function at Visit 2 and Visit 4 and evidence of reversibility of airway obstruction. Approximately 139 eligible participants whose asthma was uncontrolled during a run-in period of approximately 2 to 4 weeks entered a 6-week double-blind treatment period and were randomized in a 1:1 ratio to receive either Compound A 150 mg and montelukast 10 mg or Compound A 150 mg matching-image placebo and montelukast 10 mg. Randomization was stratified according to the number of C alleles (having either 1 or 2 copies of the allele) at the rs12748961 SNP. The total study duration for each participant was up to 17 weeks.
FIG. 2 is a graphical depiction of the study design. Briefly, salient activities occurring during the study are described below. During a pre-screening visit, a blood sample is collected to assess for the presence of the C-allele of rs12748961 SNP. At the start of the pre-study period, eligible subjects receiving Long-Acting Beta-Agonist (LABA) therapy were asked to discontinue the LABA. During run-in period (approximately 2 to 4 weeks), subjects receive single-blind Compound A 150 mg matching-image placebo and open-label montelukast 10 mg. Subjects taking asthma controller therapies prior to Visit 2 were asked to discontinue or taper off these pre-study medications before randomization while receiving open-label montelukast 10 mg. During the treatment period (approximately 6 weeks): Subjects received double-blind treatment of Compound A 150 mg plus montelukast 10 mg; or Compound A 150 mg matching-image placebo plus montelukast 10 mg.
In order to identify patient groups susceptible to treatment response, the inventors conducted an analysis on pre-specified patient subgroups in the study based on (a) demographic variables (including age, gender, race, weight, height, and body mass index) and (b) baseline characteristics (including duration of asthma, age diagnosed of asthma, asthma controller pre- trial, ICS use, blood eosinophil count, baseline ACQ-6, and smoking history), (c) prior and secondary diagnoses, (d) prior and concomitant therapies, and (e) the number of C alleles of the rs12748961 SNP on asthmatic study subjects who had undergone a clinical trial with a CRTH2 receptor antagonist and the leukotriene antagonist montelukast. The analysis sought to assess whether a mean treatment difference varies across patient subgroups defined by several pre-specified characteristics and who also tested positive for at least one copy of the C allele of the rs12748961 SNP.

The test system of experiment [2] is allergic rhinitis. As to conditions: in vivo; cited from earlier work.
The subject of experiment [3] is patient population afflicted with eosinophilic severe asthma. As to conditions: patients with eosinophilic severe asthma, Phase IIa; cited from earlier work.
Where [4] appears, read: Cmpd A 150 mg + montelukast 10 mg, full study population.

In the case of `O=C(O)Cc1c2n(c3c(F)cccc13)C[C@H](n1nncc1Cc1ccc(F)cc1)CC2` [Compound A, {(7R)-4-fluoro-7-[5-(4-fluorobenzyl)-1H-[1,2,3]triazol-1-yl]-6,7,8,9-tetrahydropyrido[1,2-a]indol-10-yl}-acetic acid], in experiment [1] (Cmpd A 150 mg + ML vs. placebo + ML, full study population), the “Estimated Differences with placebo + ML, Difference in LS Means, FEV1 at Week 4 and Week 6” value is 107 mL. Also, the “Estimated Differences With Placebo + ML, LS Mean, FEV1” value in experiment [1] (Cmpd A 150 mg + ML vs. placebo + ML, subgroup baseline eosinophil count <0.30 × 10^9/L) is 63 mL; in experiment [1] (Cmpd A 150 mg + ML vs. placebo + ML, subgroup baseline eosinophil count >0.30 × 10^9/L), 193 mL. Besides, the “Average Change From Baseline FEV1 (L), Mean” value was 0.166 L in experiment [1] (subgroup baseline eosinophil count <0.30 × 10^9/L) and 0.139 L in experiment [1] (subgroup baseline eosinophil count >0.30 × 10^9/L). In addition, the “Average Change from Baseline in FEV1 (L) at Week 4 and Week 6, Mean” value in experiment [1] (setting [4]) was found to be 0.156 L. Besides, the “Average Change from Baseline in FEV1 (L) at Week 4 and Week 6, Median” value in experiment [1] (setting [4]) was 0.091 L. In addition, the “FEV1 (L) Average at Week 4 and Week 6, Mean” value in experiment [1] (Cmpd A 150 mg + montelukast 10 mg, full study population, 6-week treatment) is 2.426 L. In experiment [1] (Cmpd A 150 mg + montelukast 10 mg, full study population, cLDA model), the “Average Change from Baseline in FEV1 (L) at Week 4 and Week 6, LS Mean” value is recorded as 0.152 L.
With `O=C(O)CCn1c2c(c3ccccc31)C[C@H](NS(=O)(=O)c1ccc(F)cc1)CC2` [Ramatroban, 3-((3R)-3-{[(4-fluorophenyl)sulfonyl]amino}-1,2,3,4-tetrahydro-9H-carbazol-9-yl)propanoic acid], the “efficacy in allergic rhinitis” value in experiment [2] is listed as “some degree of efficacy”.
Regarding `Cc1c(CC(=O)O)c2cccnc2n1Cc1ccc(S(C)(=O)=O)cc1C(F)(F)F` [fevipiprant, 2-(2-methyl-1-(4-(methylsulfonyl)-2-(trifluoromethyl)benzyl)-1H-pyrrolo[2,3-b]pyridin-3-yl)acetic acid], the sputum eosinophils entry in experiment [3] was “reduction of sputum eosinophils”.
